# Source: US20210106582A1, “COMPOUNDS AND PHARMACEUTICAL COMPOSITIONS THEREOF FOR USE IN THE TREATMENT OF FIBROTIC DISEASES” (Galapagos NV, priority 2017, published 2021)
# Values joined by “and” are separate entries in the source; they are usually repeats but may differ in a detail not shown here. Equal values may be shown once.
# Tested on: female C57BL/6J mice, lung fibrosis induced by radiation
# Assay: Radiation induced fibrosis mice model
# Type: in vivo
# Settings: individual animals, irradiated lung, CpdA 30 mg/kg QD PO D1-D14
# Procedure: Pneumonitis and lung fibrosis are the major radiation-induced complications following thoracic radiotherapy, which is one of the major treatment of lung and breast cancers, lymphomas and hematopoietic transplant conditioning.
# The objective of this model is to evaluate the effect of a compound of the invention in lung fibrosis induced by radiation in mice. (Bickelhaupt et al., 2017)
# 7 weeks old (18/22 gr) female C57BL/6J mice from Charles River (France) are maintained on 12 h light/dark cycle at 22° C. with ad libidum access to tap water and food.
# The test compounds are dissolved/suspended in appropriate vehicle prior to using and then kept light-free, under agitation at room temperature.
# The dose volume administered is 10 mL/kg and the volume is adapted following mean body weight (BW) of the group as follows: 200 μL if mean BW<22.5 g, 250 μL if mean BW≥22.5 g; 300 μL if mean BW>27.5 g.
# On day 1 of week 1, the animals are exposed at the thorax to a 17 Gray irradiation dose, under isoflurane anesthesia. […]
# Body weight are recorded once a week, and on Day 14, lung function measurement under anesthesia is realized by Flexivent (Devos et al., 2017) for all groups before sacrifice.
# At sacrifice on Day 14, the lungs are collected and fixed in 4% formaldehyde for 24 h before embedding in paraffin. […] The anti-collagen I antibody is detected and amplified by ImmPress kit (Vector Laboratories, Cat. No: MP-7401). The immunostained sections are then scanned (Nanozoomer 2.0HT, Hamamatsu) before quantification by image analysis (CaloPix software, TRIBVN Healthcare). Data are expressed as percentage collagen I area per area of lung tissue.
# Values for all mice from the same group are averaged. Data are expressed as mean±sem and are compared with a one-way ANOVA followed by Dunnett multiple comparison post hoc test. […]
# Manganese superoxide dismutase (MnSOD), located in mitochondria, catalyzes the conversion of superoxide into H2O2, and is a marker of antioxidant response induced by oxidative stress. MnSOD expression is measured immunohistochemically following a protocol adapted from Inghilleri et al. (Inghilleri et al., 2006).
# At sacrifice on Day 14, the lungs are collected and fixed in 4% formaldehyde for 24 h before embedding in paraffin. […] The anti-MnSOD antibody is detected by an anti-rabbit biotinylated antibody (Vector Laboratories, Cat. No: BA-1100) amplified by avidin-biotin peroxidase (Vector Laboratories, Cat. No: PK-6100). […] The immunostained sections counterstained with Gill's hematoxylin are then scanned (Nanozoomer 2.0HT, Hamamatsu) before quantification by image analysis (CaloPix software, TRIBVN Healthcare). Data are expressed as percentage MnSOD stained area per area of lung tissue.
structure (smiles),measurement,setting,value
"O=c1nc(OC[C@@H]2COCCO2)cc2n1CCc1cc(C#CC3CC3)ccc1-2 [Compound A, 9-Cyclopropylethynyl-2-((S)-1-[1,4]dioxan-2-ylmethoxy)-6,7-dihydro-pyrimido[6,1-a]isoquinolin-4-one]",Type I collagen stained area fraction,Figure 15,16.2% and 14.7% and 11.0% and 13.0% and 8.7% and 8.1% and 6.5% and 8.9% and 9.1% and 8.6%
same,MnSOD stained area fraction,Figure 16,0.31% and 0.74% and 0.39% and 0.57% (3×) and 0.71% and 0.66% and 0.99% and 0.26%
